Laboratory results published in patent publication US9518065B2, “IRAK inhibitors and uses thereof” (NIMBUS IRIS, INC., priority 2013, dated 2016).
pIC50: −log10 of the molar value.

target: T1, IRAK4 (Homo sapiens, UniProt Q9NWZ3); test: IRAK-4 activity inhibition assay (Caliper); type: biochemical; conditions: 3.5 nM IRAK4, 37 μM ATP, 1.5 μM Peptide 8
T1 construct: purchased CARNA Bioscience 09-145
T1 sequence (Q9NWZ3 1-460): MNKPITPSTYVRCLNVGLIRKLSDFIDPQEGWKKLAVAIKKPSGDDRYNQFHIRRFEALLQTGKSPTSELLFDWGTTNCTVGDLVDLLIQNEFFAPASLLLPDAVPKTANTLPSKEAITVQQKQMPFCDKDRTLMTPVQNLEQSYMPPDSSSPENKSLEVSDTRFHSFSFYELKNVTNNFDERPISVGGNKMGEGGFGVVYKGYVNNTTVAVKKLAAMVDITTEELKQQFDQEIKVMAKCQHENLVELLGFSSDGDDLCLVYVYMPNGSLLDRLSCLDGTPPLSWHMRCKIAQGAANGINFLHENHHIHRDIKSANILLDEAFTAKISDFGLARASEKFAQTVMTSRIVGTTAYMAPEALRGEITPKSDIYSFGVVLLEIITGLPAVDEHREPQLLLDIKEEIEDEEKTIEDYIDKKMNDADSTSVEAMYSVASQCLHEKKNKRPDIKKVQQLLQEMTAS
Experimental: A 1× kinase base buffer was prepared from 50 mM HEPES, pH 7.5 and 0.0015% Brij-35. A stop buffer was prepared from 100 mM HEPES, pH 7.5, 0.015% Brij-35, 0.2% Coating Reagent #3, and 50 mM EDTA.
Test compound was diluted to 50× of the final desired highest inhibitor concentration in reaction by 100% DMSO. 100 ul of this compound dilution was transferred to a well in a 96-well plate. For example, if desired highest inhibitor concentration in IC50 determination is 100 uM, then prepare 5000 uM of compound DMSO solution in this step.
Test compound was serially diluted by transferring 30 μl to 60 μl of 100% DMSO in the next well and so forth for a total of 10 concentrations. 100 μl of 100% DMSO was added to two empty wells for no compound control and no enzyme control in the same 96-well plate.
A new 96-well plate was marked as intermediate plate. 5 μl of compound serial dilution was transferred from source plate to the corresponding wells of the intermediate plate. 45 μl of 1× kinase base buffer (KB buffer) was added to each well of the intermediate plate. The intermediate plate was placed for 10 min on a shaker.
5 μl of each well was transferred from the 96-well intermediate plate to a 384-well plate in duplicates. For example, A1 of the 96-well plate is transferred to A1 and A2 of the 384-well plate. A2 of the 96-well plate is transferred to A3 and A4 of the 384-well plate, and so on.
IRAK4 and DTT in 1× kinase base buffer was added. The 2.5× enzyme mix contained 8.8 nM IRAK4 and 5 mM DTT.
Peptide 8, ATP, MgCl2 and MnCl2 were added in the 1× kinase base buffer. The 2.5× peptide mix contained 3.75 μM peptide 8, 92.5 μM ATP, 12.5 mM MgCl2 and 2.5 mM MnCl2.
Assay plate already contained 5 μl of compound in 10% DMSO. Added 10 μl of 2.5× enzyme solution to each well of the 384-well assay plate, except no enzyme control wells. The final concentration of IRAK4 in reaction was 3.5 nM. Added 10 μl of 1× kinase base buffer to no enzyme control wells in the assay plate. Incubated at room temperature for 10 min.
Added 10 μl of 2.5× peptide solution to each well of the 384-well assay plate. The final concentration of Peptide 8 and ATP was 1.5 μM and 37 μM, respectively. Incubated at 28° C. for 40 minutes. Added 25 μl of stop buffer to stop reaction. Collected data on Caliper.
Copied conversion % data from Caliper program. Converted conversion % values to percent inhibition values. Percent inhibition=(max-conversion %)/(max-min)*100, where “max” means the conversion % of DMSO control and “min” means the conversion % of no enzyme control.
The compound numbers correspond to the compound numbers in Table 1. Compounds having an activity designated as “A” provided an IC50≦1 μM; compounds having an activity designated as “B” provided an IC50 of 1-5 μM; compounds having an activity designated as “C” provided an IC50 of ≧5 μM. “NA” stands for “not assayed.”

CCc1nc2c(N[C@H]3CC[C@H](N(C)C)CC3)ncnc2s1 [Compound I-1, (1r,4r)-N1-(2-ethylthiazolo[5,4-d]pyrimidin-7-yl)-N4,N4-dimethylcyclohexane-1,4-diamine] and Cc1nc2c(N[C@H]3CC[C@H](N(C)C)CC3)ncnc2s1 [Compound I-4, (1r,4r)-N1,N1-dimethyl-N4-(2-methylthiazolo[5,4-d]pyrimidin-7-yl)cyclo-hexane-1,4-diamine] fall in the same range of pIC50: 5.30 to 6.00 for the first, 5.30 to 6.00 for the second.

CC(C)c1nc2c(N[C@H]3CC[C@H](N(C)C)CC3)ncnc2s1 [Compound I-2, (1r,4r)-N-1-(2-isopropylthiazolo[5,4-d]pyrimidin-7-yl)-N4,N4-dimethylcyclohexane-1,4-diamine] and CCc1nc2c(O[C@H]3CC[C@H](N(C)C)CC3)ncnc2s1 [Compound I-3, (1r,4r)-4-((2-ethylthiazolo[5,4-d]pyrimidin-7-yl)oxy)-N,N-dimethylcyclo-hexanamine] cannot be ordered by pIC50: 5.30 to 6.00 for the first, at most 5.30 for the second.

CCc1nc2c(N[C@H]3CC[C@H](N4CCOCC4)CC3)ncnc2s1 [Compound I-5, 2-ethyl-N-((1r,4r)-4-morpholinocyclohexyl)thiazolo[5,4-d]pyrimidin-7-amine] and CCc1nc2c(N[C@H]3CC[C@H](N4CCOCC4)CC3)nc(N)nc2s1 [Compound I-31, 2-ethyl-N7-((1r,4r)-4-morpholinocyclohexyl)thiazolo[5,4-d]pyrimidine-5,7-diamine] cannot be ordered by pIC50: 5.30 to 6.00 for the first, at most 5.30 for the second.

CCc1nc2c(N(CC)[C@H]3CC[C@H](N4CCOCC4)CC3)ncnc2s1 [Compound I-6, N,2-diethyl-N-((1r,4r)-4-morpholinocyclohexyl)thiazolo[5,4-d]pyrimidin-7-amine] and CCc1nsc2ncnc(N[C@H]3CC[C@H](N4CCOCC4)CC3)c12 [Compound I-20, 3-ethyl-N-((1r,4r)-4-morpholinocyclohexyl)isothiazolo[5,4-d]pyrimidin-4-amine] cannot be ordered by pIC50: at most 5.30 for the first, 5.30 to 6.00 for the second.

CCc1nc2c(N[C@H]3CC[C@H](N4CCC(F)(F)CC4)CC3)nc(Nc3cnn(C)c3)nc2s1 [Compound I-11, N7-((1r,4r)-4-(4,4-difluoropiperidin-1-yl)cyclohexyl)-2-ethyl-N5-(1-methyl-1H-pyrazol-4-yl)thiazolo[5,4-d]pyrimidine-5,7-diamine] and Cn1cc(Nc2nc(N[C@H]3CC[C@H](N4CCOCC4)CC3)c3nc(C(C)(F)F)sc3n2)cn1 [Compound I-48, 2-(1,1-difluoroethyl)-N5-(1-methyl-1H-pyrazol-4-yl)-N7-((1r,4r)-4-morpholinocyclohexyl)thiazolo[5,4-d]pyrimidine-5,7-diamine] cannot be ordered by pIC50: 5.30 to 6.00 for the first, at least 6.00 for the second.

CCc1nc2c(N[C@H]3CC[C@H](N(C)CC(=O)N4CCCC4)CC3)nc(Nc3cnn(C)c3)nc2s1 [Compound I-15, 2-(((1r,4r)-4-((2-ethyl-5-((1-methyl-1H-pyrazol-4-yl)amino)-thiazolo[5,4-d]pyrimidin-7-yl)amino)cyclohexyl)(methyl)amino)-1-(pyrrolidin-1-yl)ethan-1-one] and CC(=O)c1nc2c(N[C@H]3CC[C@H](N4CCOCC4)CC3)nc(Nc3cnn(C)c3)nc2s1 [Compound I-41, 1-(5-((1-methyl-1H-pyrazol-4-yl)amino)-7-(((1r,4r)-4-morpholinocyclohexyl)amino)thiazolo[5,4-d]pyrimidin-2-yl)ethan-1-one] cannot be ordered by pIC50: at least 6.00 for the first, at least 6.00 for the second.

First: Cc1nc2c(N[C@H]3CC[C@H](N4CCOCC4)CC3)nc(N)nc2s1 [Compound I-43, 2-methyl-N7-((1r,4r)-4-morpholinocyclo-hexyl)thiazolo[5,4-d]pyrimidine-5,7-diamine]
Second: [2H]C([2H])([2H])c1nc2c(N[C@H]3CC[C@H](N4CCOCC4)CC3)nc(Nc3cnn(C)c3)nc2s1 [Compound I-58, 2-(methyl-d3)-N5-(1-methyl-1H-pyrazol-4-yl)-N7-((1r,4r)-4-morpholinocyclohexyl)thiazolo[5,4-d]pyrimidine-5,7-diamine]
The pIC50 of the first is lower: at most 5.30 for the first, at least 6.00 for the second. The second is the more potent here.

Cn1cc(Nc2nc(N[C@H]3CC[C@H](N4CCOCC4)CC3)c3nc(C(F)(F)F)sc3n2)cn1 [Compound I-44, N5-(1-methyl-1H-pyrazol-4-yl)-N7-((1r,4r)-4-morpholino-cyclohexyl)-2-(trifluoromethyl)thiazolo[5,4-d]pyrimidine-5,7-diamine] and Cn1cc(Nc2nc(N[C@H]3CC[C@H](N4CCOCC4)CC3)c3nc(C(C)(C)C)sc3n2)cn1 [Compound I-50, 2-(tert-butyl)-N5-(1-methyl-1H-pyrazol-4-yl)-N7-((1r,4r)-4-morpholinocyclohexyl)thiazolo[5,4-d]pyrimidine-5,7-diamine] cannot be ordered by pIC50: at least 6.00 for the first, 5.30 to 6.00 for the second.

Cn1cc(Nc2nc(N[C@H]3CC[C@H](N4CCOCC4)CC3)c3nc(C(F)F)sc3n2)cn1 [Compound I-45, 2-(difluoromethyl)-N5-(1-methyl-1H-pyrazol-4-yl)-N7-((1r,4r)-4-morpholinocyclohexyl)thiazolo[5,4-d]pyrimidine-5,7-diamine] and CC(C)c1nc2c(N[C@H]3CC[C@H](N4CCOCC4)CC3)nc(Nc3cnn(C)c3)nc2s1 [Compound I-47, 2-isopropyl-N5-(1-methyl-1H-pyrazol-4-yl)-N7-((1r,4r)-4-morpholinocyclohexyl)thiazolo[5,4-d]pyrimidine-5,7-diamine] cannot be ordered by pIC50: at least 6.00 for the first, at least 6.00 for the second.

Cn1cc(Nc2nc(N[C@H]3CC[C@H](N4CCOCC4)CC3)c3ncsc3n2)cn1 [Compound I-46, N5-(1-methyl-1H-pyrazol-4-yl)-N7-((1r,4r)-4-morpholinocyclo-hexyl)thiazolo[5,4-d]pyrimidine-5,7-diamine] and CC(C)n1cc(Nc2nc(N[C@H]3CC[C@H](N4CCOCC4)CC3)c3ncsc3n2)cn1 [Compound I-53, N5-(1-isopropyl-1H-pyrazol-4-yl)-N7-((1r,4r)-4-morpholino-cyclohexyl)thiazolo[5,4-d]pyrimidine-5,7-diamine] cannot be ordered by pIC50: at least 6.00 for the first, at least 6.00 for the second.

Cn1cc(Nc2nc(N[C@H]3CC[C@H](N4CCOCC4)CC3)c3nc(C4CC4)sc3n2)cn1 [Compound I-49, 2-cyclopropyl-N5-(1-methyl-1H-pyrazol-4-yl)-N7-((1r,4r)-4-morpholinocyclohexyl)thiazolo[5,4-d]pyrimidine-5,7-diamine] and c1nc2c(N[C@H]3CC[C@H](N4CCOCC4)CC3)nc(Nc3cnn(C4CCOCC4)c3)nc2s1 [Compound I-51, N7-((1r,4r)-4-morpholinocyclohexyl)-N5-(1-(tetrahydro-2H-pyran-4-yl)-1H-pyrazol-4-yl)thiazolo[5,4-d]pyrimidine-5,7-diamine] cannot be ordered by pIC50: at least 6.00 for the first, at least 6.00 for the second.

c1nc2c(N[C@H]3CC[C@H](N4CCOCC4)CC3)nc(Nc3cnn(CC4CCOCC4)c3)nc2s1 [Compound I-52, N7-((1r,4r)-4-morpholinocyclohexyl)-N5-(1-((tetrahydro-2H-pyran-4-yl)methyl)-1H-pyrazol-4-yl)thiazolo[5,4-d]pyrimidine-5,7-diamine] and OCCn1cc(Nc2nc(N[C@H]3CC[C@H](N4CCOCC4)CC3)c3ncsc3n2)cn1 [Compound I-54, 2-(4-((7-(((1r,4r)-4-morpholinocyclohexyl)amino)thiazolo[5,4-d]pyrimidin-5-yl)amino)-1H-pyrazol-1-yl)ethan-1-ol] cannot be ordered by pIC50: at least 6.00 for the first, at least 6.00 for the second.

For Cc1nc2c(O[C@H]3CC[C@H](N4CCOCC4)CC3)nc(Nc3cnn(C(C)C)c3)nc2s1 [Compound I-57, N-(1-isopropyl-1H-pyrazol-4-yl)-2-methyl-7-(((1r,4r)-4-morpholino-cyclohexyl)oxy)thiazolo[5,4-d]pyrimidin-5-amine], the pIC50 was at least 6.00.
